Data published in PMC5428058, “Local delivery of novel MRTF/SRF inhibitors prevents scar tissue formation in a preclinical model of fibrosis” (Scientific Reports, 2017).

How the values were obtained:
Format in all cases: cell-based
[1] = tested on: human conjunctival fibroblasts; assay: cell viability assay (CellTiter 96 Aqueous one solution); conditions: for cell viability: 24 hours
Description: Human conjunctival fibroblasts were plated at 6.25 × 10^3 cells/well in 96-well plates (Falcon, Fisher Scientific), and treated with 1, 3, 10, 30 or 100 μM of CCG-222740 or CCG-203971 or 0.1% DMSO control for 24 hours. 20 μl of CellTiter 96 Aqueous one solution (Promega) were then added to each well containing the samples in 100 μl of culture medium. The plate was incubated for 1 hour at 37 °C and the absorbance was measured at 490 nm on a SpectraMax Plus 384 spectrophotometer (Molecular Devices, California, USA). Each experiment was carried out in triplicates for each condition and the experiment was repeated three times.

[2] = tested on: rabbit conjunctival fibroblasts; assay: fibroblast-populated collagen contraction assay (rabbit); conditions: 7 days
Description: We screened two candidate MRTF/SRF pathway inhibitors, CCG-222740 and CCG-203971, using detached three-dimensional fibroblast-populated collagen gels[56], [57]. Human or rabbit conjunctival fibroblasts were seeded in a collagen Type I matrix (First Link UK Ltd, Birmingham, UK) at a concentration of 0.7 × 10^4 cells/ml. The fibroblast-populated collagen gel mixture was cast into the wells of MatTek dishes (MatTek Corp, MI, USA). The gels were detached from the edges of the well and 2 ml of growth medium were added to each well with 5, 25, 50, 75, or 100 μM of CCG-222740 or CCG-203971 or 0.1% DMSO control. Digital photographs were obtained daily and lattice areas were measured using Image J software (http://rsb.info.nih.gov/ij/). The gel size at day 7 was assessed as a percentage of lattice area on day 0. Each experiment was performed as triplicate gels per condition and the experiment was repeated on three separate days.

[3] = tested on: αSMA protein in human conjunctival fibroblasts; assay: Western blot of αSMA protein expression; conditions: 10 or 25 μM, 48 hours
Description: Human conjunctival fibroblasts were lysed using 2x SDS sample buffer (100 mM Tris HCL ph6.8, 4% SDS, 20% glycerol, 200 mM dithiothreitol, 0.2% bromophenol blue). Equal amounts of protein were loaded onto and run on 4–12% NuPAGE Bis-Tris protein gels (Novex, Life Technologies). The gels were transferred onto nitrocellulose blotting membranes (Amersham, Life Sciences), and blocked in 3% non-fat milk in PBST (PBS 0.1% Tween) for 1 hour. The membranes were then incubated overnight at 4 °C in αSMA primary antibody (1:200, polyclonal rabbit, ab5694, Abcam). The next day, the membranes were washed three times for 10 minutes in PBST, and incubated for 1 hour at room temperature in anti-rabbit HRP (1:2500, Dako). The membranes were then washed three times for 10 minutes in PBST, treated with ECL solution (Amersham, Life sciences) for 5 minutes, and scanned on an Odyssey IR Imager (LI-COR).

O=C(Nc1ccc(Cl)cc1)C1CN(C(=O)c2cccc(-c3ccco3)c2)CC(F)(F)C1 (stereo not drawn) [CCG-222740]
cell viability ([1]; 10 μM): 100%
cell viability ([1]; 30 μM): 88%
cell viability ([1]; 100 μM): 85%
cytotoxicity, comparison ([1]; human conjunctival fibroblasts): less cytotoxic than CCG-203971
decrease of collagen matrix contraction, comparison [2]: more effective at decreasing collagen matrix contraction than CCG-203971
αSMA protein expression, comparison [3]: more potent than CCG-203971 at decreasing αSMA protein expression
